The record followed here is patent US9101600B2, “Compounds as RORγt modulators and uses thereof” (New York University, priority 2010, dated 2015).

SMILES strings stand for the structures.

The target in the test is RORγ/γt (Mus musculus, UniProt P51450, T352K). The experiment in a line: RORγ/γt-luc reporter S2 cell assay / HTS (firefly luciferase). The conditions noted are these: for Curve Class: RORγ/γt HTS concentration response curve class.
RORγ/γt, sequence (P51450 with tags, fused parts or gaps T352K): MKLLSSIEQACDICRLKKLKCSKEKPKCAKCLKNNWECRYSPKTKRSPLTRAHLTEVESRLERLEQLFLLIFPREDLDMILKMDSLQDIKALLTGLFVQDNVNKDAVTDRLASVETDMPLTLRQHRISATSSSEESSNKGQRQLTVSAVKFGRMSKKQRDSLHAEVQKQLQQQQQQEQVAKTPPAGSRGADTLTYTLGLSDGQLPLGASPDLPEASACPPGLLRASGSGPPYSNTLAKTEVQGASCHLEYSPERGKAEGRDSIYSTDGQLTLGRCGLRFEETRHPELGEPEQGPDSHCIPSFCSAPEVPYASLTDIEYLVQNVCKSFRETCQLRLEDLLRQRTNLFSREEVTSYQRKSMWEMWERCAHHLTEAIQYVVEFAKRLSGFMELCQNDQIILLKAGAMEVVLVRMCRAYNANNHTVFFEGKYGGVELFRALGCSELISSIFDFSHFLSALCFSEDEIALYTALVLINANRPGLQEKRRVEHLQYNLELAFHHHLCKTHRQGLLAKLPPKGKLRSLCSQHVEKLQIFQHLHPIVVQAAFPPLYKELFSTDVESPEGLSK

Text: The Drosophila S2 cell line was originally purchased from Invitrogen and was maintained in Schneider's medium supplemented with 10% heat-inactivated bovine fetal calf serum and antibiotics (Invitrogen). Gal4 DNA binding domain (G4 DBD) corresponding to amino acids 1 through 147 of Gal4 protein was PCR amplified to make a fusion construct with mouse RORγt (amino acids 79 to the carboxyl terminal end) lacking its DNA binding domain. The resulting chimeric gene was subcloned into the copper inducible pMT/V5-His A vector (available from Invitrogen). In a similar manner, Gal4 fusion constructs were prepared with mouse RORα (amino acids 142 to end) or Drosophila DHR3 (amino acids 120 to end).
In order to generate stable cell lines, cells were co-transfected with pMT-G4 DBD-RORγt, pMT-G4 DBD-RORα, pMT-G4 DBD-DHR3, or pMT-G4DBDVP16 and pHygro plasmids (Invitrogen) and screened for resistant colonies in the presence of hygromycin (0.3 mg/mL). More than 150 independent RORγ stable clones with luciferase reporters (pMt-RORγ_luc) were tested for their suitability for the high-throughput screening (HTS) based on the following criteria: high signal-to background ratio in 384- and 1,536-well plates, their high induction rate upon the addition of copper, and RORγ/γt specificity probed by the dsRORγ- or RORγ/γt antagonist-mediated suppression. Positive clones were further transfected with pUAST-firefly luciferase, polIII-Renilla luciferase, and pCoPuro (Iwaki, Figuera et al. 2003) (“Rapid selection of Drosophila S2 cells with the puromycin resistance gene.” Biotechniques 35(3): 482-4, 486.) and selected with puromycin (2.5 ug/ml). […] Using similar methods, stable clones with genomic integration of the luciferase reporters and other reporters were generated such as pMT-RORα_luc, pMT-DHR3_luc, or pMT-VP16_luc.
600 G4 DBD-RORγ/γt-luc reporter (#25) or G4 DBD-VP16-luc reporter cells were distributed into each well of 1,536-well white bottom plates in 4 μl S2 cell culture volume containing hygromicin (300 μg/ml) and puromycin (2 μg/ml). Small compounds in seven different concentrations range from 46 μM to 1.7 nM were pin-transferred (23 nl) by a robot (Inglese et al., 2006, Proc. Natl. Acad. Sci. 103:11473-8). […] After 20-hour incubation at ambient temperature, 1.5 μl firefly luciferase detection mix was added and the luciferase activities were measured in 10 min. ViewLux luminometers were used for measuring luciferase signal.
Since their cognate DNA binding sites were not well characterized, the DNA binding domains (DBD) of RORγ/γt, RORα(mouse homolog for PORγ), and DHR3 (Drosophila orthologue for ROR family proteins) were replaced with the heterologous yeast GAL4 DBD. The transcriptionally active domain of general transcriptional activator VP16 was also fused with GAL4 DBD.

As usually defined, the IC50 is the point on the concentration scale where inhibition reaches its midpoint. Low values mean greater potency in that assay, high ones weaker potency in that assay. `C=C1NN=C(c2cc(-c3cccc(OCC)c3)nc3ccccc23)N1CC` [MLS000324596-02] gave a 50% inhibitory concentration (IC50) of 2110 nM. Besides, under “RORγ/γt reporter, S2 cells, concentration for 80% inhibition”, the “80% Inhib. @” value came to 3.293 µM.

With `CCOC(=O)[C@@H]1[C@H]2COc3ccc(Br)cc3[C@@H]2N2C(=O)N(c3ccc(C(F)(F)F)cc3)C(=O)[C@@]12C` [MLS001066025-01], the “Curve Class” value was determined as 4.

A word on the AC50: it is the concentration at which the activity in the assay is half-maximal. A low value points to greater potency. In the case of `CCOC(=O)[C@@H]1[C@H]2COc3ccc(Br)cc3[C@@H]2N2C(=O)N(c3cccc(F)c3)C(=O)[C@@]12C` [MLS001066026-01], the AC50 came out at 17800 nM and the “Curve Class” value was −2.2.

For `CCOC(=O)[C@@H]1[C@H]2COc3ccc(Br)cc3[C@@H]2N2C(=O)N(c3ccc(C(F)(F)F)cc3)C(=O)[C@]12C` [MLS001066035-01], the AC50 was 3980 nM and the “Curve Class” value was 4.

As to `CCOC(=O)[C@@H]1[C@H]2COc3ccc(Br)cc3[C@H]2N2C(=O)N(c3cccc(F)c3)C(=O)[C@]12C` [MLS001066046-01], half-maximal activity (AC50) was put at 12.6 nM and the “Curve Class” value turned out to be 4.

In the case of `CCOC(=O)[C@@H]1[C@H]2COc3ccc(Br)cc3[C@H]2N2C(=O)N(c3cccc(Cl)c3)C(=O)[C@]12C` [MLS001066096-01], the half-maximal activity concentration (AC50) was determined as 8910 nM and the “Curve Class” value is listed as −2.2.

Regarding `CCOC(=O)[C@@H]1[C@H]2COc3ccccc3[C@H]2N2C(=O)N(c3ccc(OC)cc3)C(=O)[C@]12C` [MLS001066225-01], the “Curve Class” value stood at 4.

Regarding `CCOC(=O)[C@@H]1[C@H]2COc3cc(OC)ccc3[C@@H]2N2C(=O)N(c3ccc(F)cc3)C(=O)[C@]12C` [MLS001066228-01], the AC50 was 141 nM and the “Curve Class” value is given as 4.

Take `CCOC(=O)[C@@H]1[C@H]2COc3cc(OC)ccc3[C@@H]2N2C(=O)N(c3ccc(C(F)(F)F)cc3)C(=O)[C@]12C` [MLS001066230-01]: the “Curve Class” value came to 4.

With `CCOC(=O)[C@@H]1[C@H]2COc3cc(OC)ccc3[C@@H]2N2C(=O)N(c3cccc(F)c3)C(=O)[C@@]12C` [MLS001066231-01], the concentration at half-maximal activity (AC50) was found to be 10000 nM and the “Curve Class” value is reported as −2.1.

Turning to `CCOC(=O)[C@@H]1[C@H]2COc3cc(OC)ccc3[C@H]2N2C(=O)N(c3ccc(F)cc3)C(=O)[C@]12C` [MLS001066238-01], the “Curve Class” value is reported as 4.

Turning to `CCOC(=O)[C@@H]1[C@H]2COc3cc(OC)ccc3[C@@H]2N2C(=O)N(c3cccc(F)c3)C(=O)[C@]12C` [MLS001066241-01], half-maximal activity (AC50) was put at 3980 nM and the “Curve Class” value was 4.

Turning to `CCOC(=O)[C@@H]1[C@H]2COc3ccc(Br)cc3[C@@H]2N2C(=O)N(c3ccccc3)C(=O)[C@]12C` [MLS001066242-01], the half-maximal activity concentration (AC50) was 22.4 nM and the “Curve Class” value is 4.

For `CCOC(=O)[C@@H]1[C@H]2COc3ccc(Br)cc3[C@@H]2N2C(=O)N(c3ccc(F)cc3)C(=O)[C@]12C` [MLS001066243-01], half-maximal activity (AC50) was put at 891 nM and the “Curve Class” value worked out at 4.

As for `CCOC(=O)[C@@H]1[C@H]2COc3ccc(Br)cc3[C@@H]2N2C(=O)N(c3ccc(Br)cc3)C(=O)[C@]12C` [MLS001066244-01], the AC50 was found to be 5.6 nM and the “Curve Class” value worked out at 4.

As for `CCOC(=O)[C@@H]1[C@H]2COc3cc(OC)ccc3[C@H]2N2C(=O)N(c3ccc(F)cc3)C(=O)[C@@]12C` [MLS001066248-01], the “Curve Class” value is 4.

In the case of `CCOC(=O)[C@@H]1[C@H]2COc3cc(OC)ccc3[C@H]2N2C(=O)N(c3ccc(C(F)(F)F)cc3)C(=O)[C@@]12C` [MLS001066250-01], the half-maximal activity concentration (AC50) was found to be 4470 nM and the “Curve Class” value worked out at 4.

As for `CCOC(=O)[C@@H]1[C@H]2COc3ccc(Br)cc3[C@H]2N2C(=O)N(c3ccc(F)cc3)C(=O)[C@]12C` [MLS001066253-01], the “Curve Class” value stood at 4.

As to `CCOC(=O)[C@@H]1[C@H]2COc3ccc(Br)cc3[C@H]2N2C(=O)N(c3ccc(Br)cc3)C(=O)[C@]12C` [MLS001066254-01], half-maximal activity (AC50) was put at 1120 nM and the “Curve Class” value is 4.

As for `CCOC(=O)[C@@H]1[C@H]2COc3ccccc3[C@H]2N2C(=O)N(c3cccc(F)c3)C(=O)[C@]12C` [MLS001066256-01], the “Curve Class” value is listed as 4.
